In PMC6937300, “A novel phytocannabinoid isolated from Cannabis sativa L. with an in vivo cannabimimetic activity higher than Δ^9-tetrahydrocannabinol: Δ^9-Tetrahydrocannabiphorol” (Scientific Reports, 2019):

Molecular target: T1, human CB1 receptor (Homo sapiens, UniProt P21554)
T1 construct: gene CNR1
T1 sequence (P21554 whole entry): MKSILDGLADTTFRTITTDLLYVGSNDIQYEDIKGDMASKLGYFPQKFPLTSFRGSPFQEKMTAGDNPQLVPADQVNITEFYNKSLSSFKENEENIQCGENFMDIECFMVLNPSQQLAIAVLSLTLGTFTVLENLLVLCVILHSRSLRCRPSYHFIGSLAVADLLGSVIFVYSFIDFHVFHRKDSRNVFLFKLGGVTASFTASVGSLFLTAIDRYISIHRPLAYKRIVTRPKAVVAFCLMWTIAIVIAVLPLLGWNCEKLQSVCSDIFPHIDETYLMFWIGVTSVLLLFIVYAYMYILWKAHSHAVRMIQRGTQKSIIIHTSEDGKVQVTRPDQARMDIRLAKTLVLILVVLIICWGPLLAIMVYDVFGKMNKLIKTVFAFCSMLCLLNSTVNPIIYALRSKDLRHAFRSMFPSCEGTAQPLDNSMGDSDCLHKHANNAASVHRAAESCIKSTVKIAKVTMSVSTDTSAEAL

CCCCCCCc1cc(O)c2c(c1)OC(C)(C)[C@@H]1CCC(C)=C[C@@H]21 [(-)-trans-Δ^9-THCP, (6aR,10aR)-3-heptyl-6,6,9-trimethyl-6a,7,8,10a-tetrahydro-6H-benzo[c]chromen-1-ol]
Ki: 1.2 nM
